The supplement of paper PMC4862054

Legend:
Settings in all cases: 72 h
[1] = tested on: CAL-85-1
Summary of the method: (§1)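 Breast cancer cell lines in 20 µl suspension were added to 384-well plates already holding compound at 5 concentrations, spaced in 10-fold steps across a compound-specific 10,000-fold range, and incubated for 72 h. CellTox Green fluorescence (485/520 nm) was read first to measure cell death, followed by CellTiter-Glo luminescence for viability after 10 min at room temperature. Each plate was normalised to 0.1 % DMSO and a positive kill control. EC50 values came from dose-response curve fits and were censored at the top concentration.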

[2] = tested on: MDA-MB-468
Summary of the method: as §1

[3] = tested on: CAL-51
Summary of the method: as §1

[4] = tested on: BT-474
Summary of the method: as §1

[5] = tested on: CAL-120
Summary of the method: as §1

[6] = tested on: HCC1937
Summary of the method: as §1

[7] = tested on: MDA-MB-436
Summary of the method: as §1

[8] = tested on: MDA-MB-231
Summary of the method: as §1

[9] = tested on: MCF-10A
Summary of the method: as §1

[10] = tested on: HCC1143
Summary of the method: as §1

[11] = tested on: BT-549
Summary of the method: as §1

[12] = tested on: MDA-MB-453
Summary of the method: as §1

[13] = tested on: Hs578T
Summary of the method: as §1

[14] = tested on: CAL-148
Summary of the method: as §1

[15] = tested on: HCC1599
Summary of the method: as §1

[16] = tested on: MFM-223
Summary of the method: as §1

[17] = tested on: DU-4475
Summary of the method: as §1

[18] = tested on: SK-BR-3
Summary of the method: as §1

[19] = tested on: HDQ-P1
Summary of the method: as §1

[20] = tested on: BT-474; remark: listed apart in the source
Summary of the method: (§2)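 To measure viability, fluorescence at 560/590 nm was read after 2.5 µl CellTiter-Blue had been added for 2 h at 37 °C. Cells from breast cancer lines had been seeded in 20 µl suspension onto 384-well plates pre-loaded with compound dissolved in 5 µl medium and kept for 72 h. EC50 comes from a fitted percent-inhibition dose-response curve censored at the highest concentration, after per-plate normalisation to vehicle and a positive kill control, Z'-factor checks, and removal of rows with zero drug sensitivity score.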

[21] = tested on: CAL-85-1; remark: listed apart in the source
Description: (§3)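 Drug sensitivity and resistance testing (DSRT) of breast cancer cell lines in 384-well plates, 5 concentrations in 10-fold dilutions over a compound-specific 10,000-fold range. After 72 h, cytotoxicity was read by CellTox Green fluorescence and viability by CellTiter-Glo luminescence (multiplexed), normalised to DMSO and benzethonium chloride controls. EC50 is the inflection point of the fitted dose-response curve (bottom asymptote free, so it can be relative for partial curves) and is censored at the highest tested concentration. Rows with DSS 0 (no meaningful response) were excluded.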

[22] = tested on: MDA-MB-468; remark: listed apart in the source
Description: as §3

[23] = tested on: BT-474; remark: listed apart in the source
Description: as §3

[24] = tested on: MDA-MB-436; remark: listed apart in the source
Description: as §3

[25] = tested on: MCF-10A; remark: listed apart in the source
Description: as §3

[26] = tested on: BT-549; remark: listed apart in the source
Description: as §3

[27] = tested on: Hs578T; remark: listed apart in the source
Description: as §3

[28] = tested on: CAL-148; remark: listed apart in the source
Description: as §3

[29] = tested on: MFM-223; remark: listed apart in the source
Description: as §3

[30] = tested on: HDQ-P1; remark: listed apart in the source
Description: as §3

[31] = tested on: CAL-85-1; remark: listed apart in the source
Summary of the method: as §2

[32] = tested on: CAL-51; remark: listed apart in the source
Summary of the method: as §2

[33] = tested on: MDA-MB-453; remark: listed apart in the source
Summary of the method: as §2

[34] = tested on: CAL-148; remark: listed apart in the source
Summary of the method: as §2

[35] = tested on: DU-4475; remark: listed apart in the source
Summary of the method: as §2

[36] = tested on: HDQ-P1; remark: listed apart in the source
Summary of the method: as §2

[37] = tested on: HCC1937; remark: listed apart in the source
Description: as §3

[38] = tested on: DU-4475; remark: listed apart in the source
Description: as §3

[39] = tested on: CAL-120; remark: listed apart in the source
Description: as §3

[40] = tested on: HCC1143; remark: listed apart in the source
Description: as §3

SMILES | EC50, CellTiter-Glo [2] | EC50, CellTiter-Glo [4] | EC50, CellTiter-Glo [6] | EC50, CellTiter-Glo [7] | EC50, CellTiter-Glo [8] | EC50, CellTiter-Glo [10] | EC50, CellTiter-Glo [11] | EC50, CellTiter-Glo [12] | EC50, CellTiter-Glo [15] | EC50, CellTiter-Glo [18] | EC50, CellTiter-Blue viability [20] | EC50, CellTiter-Blue viability [33] | EC50, CellTiter-Glo [1] | EC50, CellTiter-Glo [3] | EC50, CellTiter-Glo [5] | EC50, CellTiter-Glo [9] | EC50, CellTiter-Glo [13] | EC50, CellTiter-Glo [14] | EC50, CellTiter-Glo [16] | EC50, CellTiter-Glo [17] | EC50, CellTiter-Glo [19] | EC50, CellTox Green [21] | EC50, CellTox Green [22] | EC50, CellTox Green [23] | EC50, CellTox Green [24] | EC50, CellTox Green [25] | EC50, CellTox Green [26] | EC50, CellTox Green [27] | EC50, CellTox Green [28] | EC50, CellTox Green [29] | EC50, CellTox Green [30] | EC50, CellTiter-Blue viability [31] | EC50, CellTiter-Blue viability [32] | EC50, CellTiter-Blue viability [34] | EC50, CellTiter-Blue viability [35] | EC50, CellTiter-Blue viability [36] | EC50, CellTox Green [37] | EC50, CellTox Green [38] | EC50, CellTox Green [39] | EC50, CellTox Green [40]
COC(=O)C[C@](O)(CCCC(C)(C)O)C(=O)O[C@@H]1C(OC)=C[C@]23CCCN2CCc2cc4c(cc2[C@H]13)OCO4 [Omacetaxine] | 45.5 nM | 299 nM | 64.3 nM | 22.6 nM | 138 nM | 80.6 nM | 50.3 nM | 73.9 nM | 41.1 nM | 86.7 nM | 92.8 nM | 24.7 nM | 36.2 nM | 37.5 nM | 93.8 nM | 116 nM | 68.3 nM | 56.8 nM | 102 nM | 14.4 nM | 39.1 nM | 41.7 nM | 388 nM | 5890 nM | 7440 nM | 770 nM | 260 nM | 40.8 nM | 2670 nM | 63.7 nM | 689 nM | 17.4 nM | 21.5 nM | 13.7 nM | 5.48 nM | 13.8 nM | – | – | – | –
COC1=C2C[C@@H](C)C[C@H](OC)[C@H](O)[C@@H](C)/C=C(\C)[C@H](OC(N)=O)[C@@H](OC)/C=C\C=C(/C)C(=O)NC(=CC1=O)C2=O [Geldanamycin] | 4130 nM | 4080 nM | 2130 nM | 1050 nM | 3390 nM | 6310 nM | 3180 nM | 3390 nM | 5810 nM | 1820 nM | 62 nM | 96.5 nM | 2680 nM | 3480 nM | 6700 nM | 4380 nM | 5350 nM | 7190 nM | 666 nM | 2470 nM | 3910 nM | 2570 nM | 59.8 nM | 6830 nM | – | 2370 nM | – | – | – | 8020 nM | – | 270 nM | 535 nM | 223 nM | 137 nM | 81.4 nM | 2450 nM | 4720 nM | – | –
C[C@@]1(C(=O)Nc2ccc(F)nc2)CCCN1c1nc(Nc2cc(C3CC3)n[nH]2)c2cccn2n1 | 207 nM | 2050 nM | – | 2720 nM | 1770 nM | 4150 nM | 1420 nM | – | 2260 nM | 127 nM | – | 314 nM | 467 nM | 1060 nM | 1250 nM | 21.6 nM | 7980 nM | – | 1570 nM | 4110 nM | 402 nM | – | 3.79 nM | – | – | 3230 nM | – | – | > 10000 nM | 587 nM | 5000 nM | 858 nM | 1500 nM | 1170 nM | 1510 nM | 293 nM | – | – | 4500 nM | 1350 nM
COc1cccc2c1C(=O)c1c(O)c3c(c(O)c1C2=O)C[C@@](O)(C(C)=O)C[C@@H]3O[C@H]1C[C@H](N)[C@H](O)[C@H](C)O1 [Daunorubicin] | 109 nM | 169 nM | 692 nM | 175 nM | 221 nM | 535 nM | 129 nM | 470 nM | 570 nM | 254 nM | 160 nM | 465 nM | 380 nM | 84.2 nM | 227 nM | 633 nM | 229 nM | 134 nM | 784 nM | 211 nM | 519 nM | – | 100 nM | – | 953 nM | – | – | – | – | – | – | 290 nM | 59 nM | 66.1 nM | 56.4 nM | 338 nM | – | – | – | –
CC(=O)O[C@H]1C(=O)[C@@]2(C)[C@H]([C@H](OC(=O)c3ccccc3)[C@]3(O)C[C@H](OC(=O)[C@H](O)[C@@H](NC(=O)c4ccccc4)c4ccccc4)C(C)=C1C3(C)C)[C@]1(OC(C)=O)CO[C@@H]1C[C@@H]2O [Paclitaxel] | 3.47 nM | 7.94 nM | 2.62 nM | 4.07 nM | 10.7 nM | 3.37 nM | 4.79 nM | 22.6 nM | 16.9 nM | 0.72 nM | 8.24 nM | 4.03 nM | 4.73 nM | 7.96 nM | 6.96 nM | 3.65 nM | 6.32 nM | 1.96 nM | 5.86 nM | 44 nM | 2.81 nM | 2.42 nM | 4.52 nM | 11.5 nM | 66.5 nM | 16.8 nM | 6.52 nM | 4.11 nM | 1.16 nM | 3.4 nM | – | 7.28 nM | 12.2 nM | 6.75 nM | 18.6 nM | 1.26 nM | – | – | – | –

Further lines, with some results ahead:

EC50, CellTiter-Glo [2] | EC50, CellTiter-Glo [4] | EC50, CellTiter-Glo [6] | EC50, CellTiter-Glo [7] | EC50, CellTiter-Glo [8] | EC50, CellTiter-Glo [10] | EC50, CellTiter-Glo [11] | EC50, CellTiter-Glo [12] | EC50, CellTiter-Glo [15] | EC50, CellTiter-Glo [18] | EC50, CellTiter-Blue viability [20] | EC50, CellTiter-Blue viability [33] | SMILES | EC50, CellTiter-Glo [1] | EC50, CellTiter-Glo [3] | EC50, CellTiter-Glo [5] | EC50, CellTiter-Glo [9] | EC50, CellTiter-Glo [13] | EC50, CellTiter-Glo [14] | EC50, CellTiter-Glo [16] | EC50, CellTiter-Glo [17] | EC50, CellTiter-Glo [19] | EC50, CellTox Green [21] | EC50, CellTox Green [22] | EC50, CellTox Green [23] | EC50, CellTox Green [24] | EC50, CellTox Green [25] | EC50, CellTox Green [26] | EC50, CellTox Green [27] | EC50, CellTox Green [28] | EC50, CellTox Green [29] | EC50, CellTox Green [30] | EC50, CellTiter-Blue viability [31] | EC50, CellTiter-Blue viability [32] | EC50, CellTiter-Blue viability [34] | EC50, CellTiter-Blue viability [35] | EC50, CellTiter-Blue viability [36] | EC50, CellTox Green [37] | EC50, CellTox Green [38] | EC50, CellTox Green [39] | EC50, CellTox Green [40]
29.8 nM | 33.5 nM | 341 nM | 452 nM | 130 nM | – | – | – | – | – | – | 249 nM | Cn1c(=O)c(F)c(Nc2ccc(I)cc2F)c2c(=O)n(C[C@@H](O)CO)cnc21 [TAK-733] | 125 nM | 3.04 nM | 66.6 nM | 3.49 nM | – | – | 371 nM | 7.03 nM | 6.97 nM | 181 nM | – | – | – | – | – | – | – | – | – | 68.5 nM | 102 nM | – | 3.59 nM | 161 nM | – | 29.1 nM | > 1000 nM | –
26.2 nM | 152 nM | – | 299 nM | 144 nM | 130 nM | 155 nM | – | – | – | – | 12.8 nM | CCS(=O)(=O)c1cccc(-c2cc(C(=O)NC3CCN(C)CC3)c(C)c3[nH]c4ncc(C)cc4c23)c1 [TAK-901] | – | – | 131 nM | 151 nM | 445 nM | – | 123 nM | – | 642 nM | – | – | – | – | – | 871 nM | – | – | – | – | 344 nM | 179 nM | – | 806 nM | 260 nM | – | – | – | –
